1 compound from EPA's ToxValDB 9.5 (doi:10.2903/j.efsa.2010.1779) can be followed below.

Each structure is given as a SMILES string. Values after ≈ are worked out from the molar mass of the structure shown. Some results are limits rather than exact numbers.

Usually LOAEL stands for the lowest dose or exposure tested at which an adverse effect was seen. One may read the NOAEL as the highest dose or exposure tested at which no adverse effect was seen.

The test system of one series is Apis mellifera. The conditions noted are these: acute; duration: 48 hours; oral; unspecified; mortality.
The subject of a further series is Bibionidae. Conditions: chronic/long-term.
For another series, the system named is Mus musculus. Conditions: chronic; duration: 18 months; histopathology: neoplastic.
In another series the test system is Neomysis kadiakensis. Conditions: acute; duration: 96 hours; mortality.
For another series, the system named is Oryctolagus sp. Conditions: developmental; development.
The subject of another series is Tagia sp. The conditions noted are these: acute; duration: 14 days; mortality.
The test system of another series is Adalia sp. Nature of the series: LR50; higher = less toxic. The conditions noted are these: not reported; mortality.
The test system of the next series is Typhlodromus pyri. In words: LR50; higher = less toxic. Conditions: acute; duration: 14 days; mortality.

Take `CCOC(=O)NCCOc1ccc(Oc2ccccc2)cc1` [Fenoxycarb]: the LD50 in the series with Anas platyrhynchos (acute, oral, unspecified, mortality) was over 3000 mg/kg-day; in the series on Apis mellifera, over 204 µg/piece; in the series with Colinus virginianus (acute, oral, mortality) it was over 7000 mg/kg-day; with Rattus norvegicus (acute, oral, mortality) it was over 10000 mg/kg-day. Also, the NOEC is 17.7 mg/kg-day in the series with Anas platyrhynchos (reproductive); 0.0028 mg/kg in the series on Bibionidae; 0.00075 mg/L in the series on Bibionidae (duration: 28 days); 35.9 mg/kg-day in the series with Colinus virginianus (reproduction developmental); 1.6e-06 mg/L in the series on Daphnia magna (chronic/long-term, duration: 21 days, reproduction); 0.048 mg/L with Oncorhynchus mykiss (chronic/long-term, duration: 60 days, body weight). The LC50 was over 5880 mg/kg-day in the series with Anas platyrhynchos (short-term, oral, feed, mortality); 1360 mg/kg-day in the series on Colinus virginianus (acute, oral, diet, mortality); 0.5 µg/mL (≈ 1.66 µM) in the series with Daphnia magna (acute, duration: 48 hours, mortality); 0.35 µg/mL (≈ 1.16 µM) in the series with Neomysis kadiakensis; 0.66 µg/mL (≈ 2.19 µM) in the series on Oncorhynchus mykiss (acute, duration: 96 hours, mortality); over 850 mg/kg with Tagia sp.. This compound also returned an LOAEL in the series on Mus musculus of 5.3 mg/kg-day. Also, the NOAEL was 200 mg/kg-day in the series with Oryctolagus sp. and 9.7 mg/kg-day in the series on Rattus norvegicus (subchronic, duration: 13 weeks, oral, organ weight). In the series on Rattus norvegicus (chronic), this compound came in with an NOAEC of 40 mg/kg-day. The LR50 was over 2.5 g/ha in the series on Adalia sp. and over 463 g/ha in the series with Typhlodromus pyri.
